We go through 62 molecules from patent US12581252B2, “Substituted pyrrolo[3,4-b]pyridines as PI3K-α inhibitors” (Relay Therapeutics, Inc., priority 2020, dated 2026).

Each structure is given as a SMILES string.

For the assay, the target named is H1047R PIK3CA enzyme (Homo sapiens, UniProt P42336, H1047R). The assay is described as follows: ADP-Glo Biochemical PIK3CA Kinase Assay.
Sequence of H1047R PIK3CA enzyme (P42336 whole entry H1047R): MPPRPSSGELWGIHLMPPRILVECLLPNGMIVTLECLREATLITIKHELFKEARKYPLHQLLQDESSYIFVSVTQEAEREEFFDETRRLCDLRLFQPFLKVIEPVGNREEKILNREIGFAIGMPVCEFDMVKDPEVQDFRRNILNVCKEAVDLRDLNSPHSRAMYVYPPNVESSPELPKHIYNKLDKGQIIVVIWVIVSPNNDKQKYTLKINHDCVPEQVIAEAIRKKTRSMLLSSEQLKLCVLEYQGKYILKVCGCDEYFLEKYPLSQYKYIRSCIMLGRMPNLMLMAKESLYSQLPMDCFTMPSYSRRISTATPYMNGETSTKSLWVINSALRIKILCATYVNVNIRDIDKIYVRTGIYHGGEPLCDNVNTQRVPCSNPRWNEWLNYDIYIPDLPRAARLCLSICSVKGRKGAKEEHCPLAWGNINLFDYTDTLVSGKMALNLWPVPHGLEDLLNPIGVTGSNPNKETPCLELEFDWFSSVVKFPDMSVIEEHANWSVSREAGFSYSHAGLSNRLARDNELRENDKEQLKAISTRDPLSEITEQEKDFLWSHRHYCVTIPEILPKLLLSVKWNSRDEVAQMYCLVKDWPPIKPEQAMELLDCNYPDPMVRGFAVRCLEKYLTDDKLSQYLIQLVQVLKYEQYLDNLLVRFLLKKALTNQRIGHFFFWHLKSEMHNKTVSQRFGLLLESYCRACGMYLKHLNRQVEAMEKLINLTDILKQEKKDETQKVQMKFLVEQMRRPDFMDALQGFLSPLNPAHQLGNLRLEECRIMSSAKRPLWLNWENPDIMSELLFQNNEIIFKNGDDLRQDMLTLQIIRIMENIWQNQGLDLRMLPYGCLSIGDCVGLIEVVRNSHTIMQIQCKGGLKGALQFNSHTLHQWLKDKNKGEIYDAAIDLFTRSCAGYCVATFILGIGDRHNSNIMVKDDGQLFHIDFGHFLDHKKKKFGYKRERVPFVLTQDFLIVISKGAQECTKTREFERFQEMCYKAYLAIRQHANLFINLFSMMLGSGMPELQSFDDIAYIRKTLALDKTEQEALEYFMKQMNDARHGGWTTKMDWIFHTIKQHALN
Sequence of H1047R PIK3CA enzyme (P27986 whole entry partner): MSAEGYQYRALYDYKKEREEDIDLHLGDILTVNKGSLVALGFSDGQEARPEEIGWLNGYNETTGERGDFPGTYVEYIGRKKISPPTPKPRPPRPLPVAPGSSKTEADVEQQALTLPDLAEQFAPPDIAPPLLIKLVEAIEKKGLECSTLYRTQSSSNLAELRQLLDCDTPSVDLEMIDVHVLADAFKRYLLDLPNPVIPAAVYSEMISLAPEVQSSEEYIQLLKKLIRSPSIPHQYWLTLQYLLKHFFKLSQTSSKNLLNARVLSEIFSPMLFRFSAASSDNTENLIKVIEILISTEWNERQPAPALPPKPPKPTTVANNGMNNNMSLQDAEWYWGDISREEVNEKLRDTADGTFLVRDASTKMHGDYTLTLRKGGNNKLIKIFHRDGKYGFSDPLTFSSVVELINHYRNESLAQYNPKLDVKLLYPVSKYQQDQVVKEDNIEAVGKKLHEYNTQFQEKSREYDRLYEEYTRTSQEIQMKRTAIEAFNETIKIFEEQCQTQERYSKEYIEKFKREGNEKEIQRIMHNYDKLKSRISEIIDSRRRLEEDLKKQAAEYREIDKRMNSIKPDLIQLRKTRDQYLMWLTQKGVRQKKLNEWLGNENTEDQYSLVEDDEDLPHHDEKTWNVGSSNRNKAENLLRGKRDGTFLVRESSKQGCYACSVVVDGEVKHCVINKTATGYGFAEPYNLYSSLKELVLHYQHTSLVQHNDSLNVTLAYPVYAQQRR
As to `O=C(Nc1cc(-c2ccc3nnc(C(F)F)n3c2)cc2c1[C@H](c1cc(F)ccc1Cl)NC2=O)c1cc(F)cc(C(F)(F)F)c1` [Compound I-1925], the IC50 is not above 0.1 µM.

As for `O=C(Nc1cc(-c2cc(F)n3ncnc3c2)cc2c1[C@@H](c1cc(F)ccc1Cl)NC2=O)c1cc(F)cc(C(F)(F)F)c1` [Compound I-1926], the IC50 is 1 to 10 µM.

Consider `O=C(Nc1cc(-c2cc(F)n3ncnc3c2)cc2c1[C@H](c1cc(F)ccc1Cl)NC2=O)c1cc(F)cc(C(F)(F)F)c1` [Compound I-1927], for which the IC50 was not above 0.1 µM.

`O=C(Nc1cc(-c2ccc3nc(C(F)F)cn3c2)cc2c1[C@@H](c1cc(F)ccc1Cl)NC2=O)c1cc(F)cc(C(F)(F)F)c1` [Compound I-1928] had an IC50 of 1 to 10 µM.

In turn, `O=C(Nc1cc(-c2ccc3nc(C(F)F)cn3c2)cc2c1[C@H](c1cc(F)ccc1Cl)NC2=O)c1cc(F)cc(C(F)(F)F)c1` [Compound I-1929] displayed an IC50 not above 0.1 µM.

Turning to `O=C(Nc1cc(-c2ccc(C(F)F)nc2)cc2c1C(c1cc(F)ccc1Cl)NC2=O)c1cc(F)cc(C(F)(F)F)c1` (centres unmarked) [Compound I-1932], the IC50 was 0.1 to 0.5 µM.

`O=C(Nc1cc(-c2ccnc(C(F)F)c2)cc2c1C(c1cc(F)ccc1Cl)NC2=O)c1cc(F)cc(C(F)(F)F)c1` (centres unmarked) [Compound I-1933]: the IC50 is not above 0.1 µM.

The molecule `O=C(Nc1cc(-c2cnc3ncc(Cl)n3c2)cc2c1C(c1cc(F)ccc1Cl)NC2=O)c1cc(F)cc(C(F)(F)F)c1` (centres unmarked) [Compound I-1934] yielded an IC50 not above 0.1 µM.

Regarding `O=C(Nc1cc(-c2ccc3ncc(C(F)F)n3c2)cc2c1[C@@H](c1cc(F)ccc1Cl)NC2=O)c1cc(F)cc(C(F)(F)F)c1` [Compound I-1936], the IC50 was in the range of 0.5 to 1 µM.

With `O=C(Nc1cc(-c2ccc3ncc(C(F)F)n3c2)cc2c1[C@H](c1cc(F)ccc1Cl)NC2=O)c1cc(F)cc(C(F)(F)F)c1` [Compound I-1937], the IC50 is not above 0.1 µM.

On to `O=C(Nc1cc(-c2ccc3nc(C(F)F)nn3c2)cc2c1C(c1cc(F)ccc1Cl)NC2=O)c1cc(F)cc(C(F)(F)F)c1` (centres unmarked) [Compound I-1938], for which the IC50 is not above 0.1 µM.

For the molecule `O=C1NC(c2cc(F)ccc2Cl)c2c(NC(=O)C3OCCc4ccccc43)cc(-c3ccc4ncnn4c3)cc21` (centres unmarked) [Compound I-1939], the IC50 is 1 to 10 µM.

On to `C[S+]([O-])c1cc(-c2ccc3ncnn3c2)cc2c1C(c1cc(F)ccc1Cl)NC2=O` (centres unmarked) [Compound I-1940], for which the IC50 lay in the range of 10 to 100 µM.

`CS(=O)(=O)c1cc(-c2ccc3ncnn3c2)cc2c1C(c1cc(F)ccc1Cl)NC2=O` (centres unmarked) [Compound I-1941] yielded an IC50 of 10 to 100 µM.

In turn, `O=C1NC(c2cc(F)ccc2Cl)c2c1cccc2-c1nc2c(F)cc(C(F)(F)F)cc2[nH]1` (centres unmarked) [Compound I-1944] yielded an IC50 not above 0.1 µM.

`NCc1cc(-c2ccc3ncnn3c2)cc2c1C(c1cc(F)ccc1Cl)NC2=O` (centres unmarked) [Compound I-1950] returned an IC50 of 10 to 100 µM.

Regarding `CN1C(=O)NC(c2cc(F)ccc2Cl)c2c(NC(=O)c3cc(F)cc(C(F)(F)F)c3)cccc21` (centres unmarked) [Compound I-1951], the IC50 lay within 1 to 10 µM.

With `CN1CCN(c2cc(-c3ccc4ncnn4c3)cc3c2C(c2cc(F)ccc2Cl)NC3=O)CC1` (centres unmarked) [Compound I-1952], the IC50 lay within 10 to 100 µM.

Molecule `O=C(Nc1cc(Br)cc2c1C(c1cc(F)ccc1Cl)NC2=O)NC1(CC(F)(F)F)CCOCC1` (centres unmarked) [Compound I-1953] returned an IC50 of 10 to 100 µM.

`O=C1NC(c2cc(F)ccc2Cl)c2c(NC(=O)N3CC4CC4(F)C3)cc(Br)cc21` (centres unmarked) [Compound I-1954] came in with an IC50 of 10 to 100 µM.

In the case of `O=C1NC(c2cc(F)ccc2Cl)c2c(OCc3ccccc3)cc(-c3ccc4ncnn4c3)cc21` (centres unmarked) [Compound I-1955], the IC50 was 10 to 100 µM.

`O=C1NC(c2cc(F)ccc2Cl)c2c(NC(=O)C3CCCC(F)C3)cc(-c3ccc4ncnn4c3)cc21` (centres unmarked) [Compound I-1957] registered an IC50 of 1 to 10 µM.

In turn, `O=C1NC(c2cc(F)ccc2Cl)c2c(NC3CNCc4ccccc43)cc(-c3ccc4ncnn4c3)cc21` (centres unmarked) [Compound I-1959] gave an IC50 of 1 to 10 µM.

Molecule `O=C(CC1CCCC(O)C1)Nc1cc(-c2ccc3ncnn3c2)cc2c1C(c1cc(F)ccc1Cl)NC2=O` (centres unmarked) [Compound I-1960] gave an IC50 of 10 to 100 µM.

In turn, `Cc1ccccc1C1NCCc2cccc(NC(=O)c3cc(F)cc(C(F)(F)F)c3)c21` (centres unmarked) [Compound I-1962] returned an IC50 of 10 to 100 µM.

`Cc1ccccc1C1NCCc2c(Br)ccc(NC(=O)c3cc(F)cc(C(F)(F)F)c3)c21` (centres unmarked) [Compound I-1963] displayed an IC50 of 10 to 100 µM.

On to `O=C1NC(c2cc(F)ccc2Cl)c2c(NC(=O)N3C[C@@H](O)[C@@H](O)C3)cc(-c3ccc4ncnn4c3)cc21` (some centres unmarked) [Compound I-1965], for which the half-inhibitory concentration (IC50) lay in the range of 10 to 100 µM.

In turn, `O=C1NC(c2cc(F)ccc2Cl)c2c(NC(=O)C34CCC(CC3)O4)cc(-c3ccc4ncnn4c3)cc21` (centres unmarked) [Compound I-1966] returned a concentration for half-maximal inhibition (IC50) of 10 to 100 µM.

In turn, `O=C(Nc1cccc2c1C(C1(O)CCCCC1)NC2=O)c1cc(F)cc(C(F)(F)F)c1` (centres unmarked) [Compound I-1967] came in with an IC50 of 10 to 100 µM.

`CN(C)S(=O)(=O)c1cc(-c2ccc3ncnn3c2)cc2c1C(c1cc(F)ccc1Cl)NC2=O` (centres unmarked) [Compound I-1968] showed an IC50 of 10 to 100 µM.

The molecule `O=C(Nc1cccc2c1C(C13CC4CC(CC(C4)C1)C3)NC2=O)c1cc(F)cc(C(F)(F)F)c1` (centres unmarked) [Compound I-1969] returned an IC50 of 10 to 100 µM.

In the case of `NS(=O)(=O)c1cc(-c2ccc3ncnn3c2)cc2c1C(c1cc(F)ccc1Cl)NC2=O` (centres unmarked) [Compound I-1970], the IC50 was 10 to 100 µM.

As to `COc1cc(-c2ccc3ncnn3c2)cc2c1C(c1cc(F)ccc1Cl)NC2=O` (centres unmarked) [Compound I-1973], the IC50 is 10 to 100 µM.

Turning to `O=C1NC(c2cc(F)ccc2Cl)c2c(Nc3cccc(=O)[nH]3)cc(Br)cc21` (centres unmarked) [Compound I-1974], the IC50 lay within 1 to 10 µM.

Consider `CNS(=O)(=O)c1cc(-c2ccc3ncnn3c2)cc2c1C(c1cc(F)ccc1Cl)NC2=O` (centres unmarked) [Compound I-1977], for which the IC50 lay in the range of 10 to 100 µM.

For `O=C(NCc1ccccc1)c1cc(Br)cc2c1C(c1cc(F)ccc1Cl)NC2=O` (centres unmarked) [Compound I-1979], the IC50 lay within 10 to 100 µM.

In the case of `O=C1NC(c2cc(F)ccc2Cl)c2c(Cn3ccccc3=O)cc(-c3ccc4ncnn4c3)cc21` (centres unmarked) [Compound I-1980], the IC50 fell in the range of 10 to 100 µM.

Turning to `O=C1NC(c2cc(F)ccc2Cl)c2c(COc3cc4ccccc4cn3)cc(-c3ccc4ncnn4c3)cc21` (centres unmarked) [Compound I-1981], the IC50 was 1 to 10 µM.

Consider `NC1CCCCC1C(=O)Nc1cc(-c2ccc3ncnn3c2)cc2c1C(c1cc(F)ccc1Cl)NC2=O` (centres unmarked) [Compound I-1982], for which the IC50 fell in the range of 10 to 100 µM.

For `NC(=O)CC(=O)Nc1cc(-c2ccc3ncnn3c2)cc2c1C(c1cc(F)ccc1Cl)NC2=O` (centres unmarked) [Compound I-1983], the IC50 lay in the range of 10 to 100 µM.

With `O=C(Nc1cc(-c2cnc3ncc(Cl)n3c2)cc2c1[C@@H](c1cc(F)ccc1Cl)NC2=O)c1cc(F)cc(C(F)(F)F)c1` [Compound I-1984], the IC50 lay within 0.5 to 1 µM.

As to `O=C(Nc1cc(-c2cnc3ncc(Cl)n3c2)cc2c1[C@H](c1cc(F)ccc1Cl)NC2=O)c1cc(F)cc(C(F)(F)F)c1` [Compound I-1985], the IC50 is not above 0.1 µM.

`O=C(Nc1cc(-c2ccc3nc(C(F)F)nn3c2)cc2c1[C@@H](c1cc(F)ccc1Cl)NC2=O)c1cc(F)cc(C(F)(F)F)c1` [Compound I-1986]: the IC50 fell in the range of 1 to 10 µM.

`O=C(Nc1cc(-c2ccc3nc(C(F)F)nn3c2)cc2c1[C@H](c1cc(F)ccc1Cl)NC2=O)c1cc(F)cc(C(F)(F)F)c1` [Compound I-1987] displayed an IC50 not above 0.1 µM.

For `CC#Cc1cc(-c2ccc3ncnn3c2)cc2c1C(c1cc(F)ccc1Cl)NC2=O` (centres unmarked) [Compound I-1988], the IC50 lay in the range of 10 to 100 µM.

Regarding `O=C1NC(c2cc(F)ccc2Cl)c2c(NC(=O)[C@H]3C[C@@H](C(F)(F)F)C3)cc(Br)cc21` (some centres unmarked) [Compound I-1989], the IC50 lay within 1 to 10 µM.

Turning to `O=C1NC(c2cc(F)ccc2Cl)c2c1cc(-c1ccc3ncnn3c1)cc2N1C(=O)CCC1=O` (centres unmarked) [Compound I-1990], the IC50 was 10 to 100 µM.

On to `O=C1NC(c2cc(F)ccc2Cl)c2c(Nc3ccn(C4CC4)n3)cc(-c3ccc4ncnn4c3)cc21` (centres unmarked) [Compound I-1993], for which the IC50 is 10 to 100 µM.

`O=C1NC(c2cc(F)ccc2Cl)c2c(Nc3ccn(CCO)n3)cc(-c3ccc4ncnn4c3)cc21` (centres unmarked) [Compound I-1994] yielded an IC50 of 10 to 100 µM.

`CS(=O)(=O)n1cc(-c2cc(NC(=O)c3cc(F)cc(C(F)(F)F)c3)c3c(c2)C(=O)N[C@@H]3c2cc(F)ccc2Cl)cn1` [Compound I-1995]: the IC50 is 0.5 to 1 µM.

For `CS(=O)(=O)n1cc(-c2cc(NC(=O)c3cc(F)cc(C(F)(F)F)c3)c3c(c2)C(=O)N[C@H]3c2cc(F)ccc2Cl)cn1` [Compound I-1996], the IC50 is not above 0.1 µM.

The molecule `O=C1NC(c2cc(F)ccc2Cl)c2c1cc(-c1ccc3ncnn3c1)cc2C1=CCNCC1` (centres unmarked) [Compound I-1997] showed an IC50 of 10 to 100 µM.

On to `O=C1NC(c2cc(F)ccc2Cl)c2c1cc(-c1ccc3ncnn3c1)cc2C1=CCCNC1` (centres unmarked) [Compound I-1998], for which the IC50 is 10 to 100 µM.

For the molecule `O=C1NC(c2cc(F)ccc2Cl)c2c(CN3CCCCC3=O)cc(-c3ccc4ncnn4c3)cc21` (centres unmarked) [Compound I-1999], the IC50 fell in the range of 10 to 100 µM.

For `N#CCC(=O)Nc1cc(-c2ccc3ncnn3c2)cc2c1C(c1cc(F)ccc1Cl)NC2=O` (centres unmarked) [Compound I-2000], the IC50 was 10 to 100 µM.

In turn, `O=C1NC(c2cc(F)ccc2Cl)c2c1cc(-c1ccc3ncnn3c1)cc2N(CC(=O)N1CCCCC1)C(=O)C(F)(F)F` (centres unmarked) [Compound I-2001] registered an IC50 of 10 to 100 µM.

Molecule `O=C(Nc1cc(-c2ccnc(C(F)F)c2)cc2c1[C@@H](c1cc(F)ccc1Cl)NC2=O)c1cc(F)cc(C(F)(F)F)c1` [Compound I-2002] displayed an IC50 of 1 to 10 µM.

As to `O=C(Nc1cc(-c2ccnc(C(F)F)c2)cc2c1[C@H](c1cc(F)ccc1Cl)NC2=O)c1cc(F)cc(C(F)(F)F)c1` [Compound I-2003], the IC50 is not above 0.1 µM.

On to `O=C(Nc1cc(-c2ccc(C(F)F)nc2)cc2c1[C@@H](c1cc(F)ccc1Cl)NC2=O)c1cc(F)cc(C(F)(F)F)c1` [Compound I-2004], for which the IC50 lay in the range of 1 to 10 µM.

`O=C(Nc1cc(-c2ccc(C(F)F)nc2)cc2c1[C@H](c1cc(F)ccc1Cl)NC2=O)c1cc(F)cc(C(F)(F)F)c1` [Compound I-2008] came in with an IC50 not above 0.1 µM.

Regarding `O=C1NC(c2cc(F)ccc2Cl)c2c(NC3CCS(=O)(=O)CC3)cc(-c3ccc4ncnn4c3)cc21` (centres unmarked) [Compound I-2010], the IC50 lay within 10 to 100 µM.

As to `[2H]c1nc2cnc(-c3cc(NC(=O)c4cc(F)cc(C(F)(F)F)c4)c4c(c3)C(=O)NC4c3cc(F)ccc3Cl)cn2n1` (centres unmarked) [Compound I-2012], the IC50 was not above 0.1 µM.
